Data published in US11447503B2, “Pyridine carbamates and their use as GLUN2B receptor modulators” (JANSSEN PHARMACEUTICA NV, priority 2019, dated 2022).

target: human GluN1/GluN2B NMDA receptors (Homo sapiens, UniProt Q05586+Q13224); experiment: Cell-based calcium flux (FLIPR) assay on cloned human GluN1/GluN2B ion channels expressed in mammalian cells; details: standard assay; glutamate ~EC40, 10 μM glycine; stable Tet-On cell line
Description: 5.3. Biological Assays: Effect of Compounds of Formula (I) on Cloned Human GluN1/GluN2B Ion Channels Expressed in Mammalian Cells
NMDA receptors are ion channels that are highly permeable to Ca^2+ ions, rendering it possible to monitor NMDA receptor function using cell-based calcium flux assay. In this assay, co-agonists glutamate and glycine are added to cells heterologously expressing human GluN1/GluN2B NMDA receptors to initiate cellular Ca^2+ influx. The time course of the changes in intracellular calcium is measured using a fluorescent dye and a FLIPR (Fluorometric Imaging Plate Reader) device.
Twenty four hours before measurements, the expression of the NMDA receptors in the stable cell line is induced with Tet-On inducible system in the presence of a non-selective NMDA receptor blocker. On the day of the experiment, cell culture media is carefully washed and the cells are loaded with Calcium 5 Dye Kit (Molecular Devices) in dye loading buffer containing 137 mM NaCl, 4 mM KCl, 2 mM CaCl2, 0.5 mM MgCl2 (standard assay) or 1.5 mM MgCl2 (HTS assay), 10 mM HEPES and 5 mM D-glucose; pH 7.4. After 1 h incubation at the room temperature, the dye is washed away with the assay buffer (137 mM NaCl (standard assay) or 150 mM (HTS assay), 4 mM KCl (standard assay) or 3 mM (HTS assay), 2 mM CaCl2, 0.01 mM EDTA, 10 mM HEPES and 5 mM D-glucose; pH 7.4) In the FLIPR TETRA reader, various concentrations of the test compounds are added to the cells for 5 min while fluorescence is monitored to detect potential agonist activity. Next, co-agonists, glutamate and glycine are added for another 5 minutes. The concentration of glutamate corresponding to ˜EC40 (standard assay) or EC40 (HTS assay) is used to maximize the assay's signal window and ability to detect NMDA receptor antagonists and negative allosteric modulators. A saturating concentration (10 μM) of glycine is also present in the assay. A non-selective NMDA receptor antagonist, (+)MK-801 is used as a positive control for antagonist activity. The fluorescent signal in the presence of test compounds is quantified and normalized to the signal defined by the appropriate control wells.

Sequence of human GluN1/GluN2B NMDA receptors (Q13224 27-1484, other chains not shown): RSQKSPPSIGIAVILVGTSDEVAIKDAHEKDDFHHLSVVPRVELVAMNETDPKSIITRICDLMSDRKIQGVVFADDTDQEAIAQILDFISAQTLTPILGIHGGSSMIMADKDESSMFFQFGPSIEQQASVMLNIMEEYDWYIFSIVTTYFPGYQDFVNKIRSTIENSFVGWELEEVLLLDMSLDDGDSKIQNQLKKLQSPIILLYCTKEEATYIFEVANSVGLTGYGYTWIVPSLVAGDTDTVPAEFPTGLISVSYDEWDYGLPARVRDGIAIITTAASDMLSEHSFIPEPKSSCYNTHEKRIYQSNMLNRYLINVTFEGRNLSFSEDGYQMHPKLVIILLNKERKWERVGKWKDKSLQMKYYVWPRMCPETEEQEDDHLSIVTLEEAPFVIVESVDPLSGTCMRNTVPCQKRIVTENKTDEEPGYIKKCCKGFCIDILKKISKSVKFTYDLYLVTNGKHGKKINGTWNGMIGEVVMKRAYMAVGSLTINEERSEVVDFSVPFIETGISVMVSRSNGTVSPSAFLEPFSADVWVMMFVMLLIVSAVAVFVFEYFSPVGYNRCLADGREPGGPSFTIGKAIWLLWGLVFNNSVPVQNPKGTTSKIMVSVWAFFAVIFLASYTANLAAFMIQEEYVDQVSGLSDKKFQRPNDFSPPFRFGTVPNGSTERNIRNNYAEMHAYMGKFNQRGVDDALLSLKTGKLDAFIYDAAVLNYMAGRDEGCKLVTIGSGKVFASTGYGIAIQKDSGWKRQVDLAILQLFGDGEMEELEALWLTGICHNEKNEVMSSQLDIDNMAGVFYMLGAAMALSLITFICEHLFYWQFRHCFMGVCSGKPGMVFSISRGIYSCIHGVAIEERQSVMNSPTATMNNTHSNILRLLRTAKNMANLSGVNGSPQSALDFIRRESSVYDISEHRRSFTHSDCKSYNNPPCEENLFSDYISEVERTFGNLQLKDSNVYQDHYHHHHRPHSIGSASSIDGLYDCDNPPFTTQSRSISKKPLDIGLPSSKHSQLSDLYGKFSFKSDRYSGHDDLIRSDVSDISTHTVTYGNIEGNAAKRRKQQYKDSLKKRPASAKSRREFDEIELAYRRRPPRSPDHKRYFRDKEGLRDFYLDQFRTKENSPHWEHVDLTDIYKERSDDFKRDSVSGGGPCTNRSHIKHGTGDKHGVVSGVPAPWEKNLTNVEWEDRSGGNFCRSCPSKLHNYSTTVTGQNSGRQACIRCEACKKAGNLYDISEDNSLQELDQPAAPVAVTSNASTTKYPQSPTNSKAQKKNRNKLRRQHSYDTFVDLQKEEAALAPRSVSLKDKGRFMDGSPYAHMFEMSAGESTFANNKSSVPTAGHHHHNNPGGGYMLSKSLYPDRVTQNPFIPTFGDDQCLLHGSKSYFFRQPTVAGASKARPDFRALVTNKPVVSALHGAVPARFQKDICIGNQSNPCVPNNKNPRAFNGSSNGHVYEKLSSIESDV

Row | SMILES | IC50
1 | Cc1ncc(-c2ccc(F)cc2)cc1CN1CCCOC1=O [Example 68, 3-[[5-(4-Fluorophenyl)-2-methyl-3-pyridyl]methyl]-1,3-oxazinan-2-one] | > 3000 nM
2 | Cc1ncc(-c2cccc(F)c2)cc1CN1CCCOC1=O [Example 69, 3-[[5-(3-Fluorophenyl)-2-methyl-3-pyridyl]methyl]-1,3-oxazinan-2-one] | 3020 nM
3 | Cc1cc(-c2cnc(C)c(CN3CCCOC3=O)c2)cc(F)c1F [Example 70, 3-[[5-(3,4-Difluoro-5-methyl-phenyl)-2-methyl-3-pyridyl]methyl]-1,3-oxazinan-2-one] | 13 nM
4 | Cc1ncc(-c2ccc(F)c(C)c2F)cc1CN1CCCOC1=O [Example 71, 3-[[5-(2,4-Difluoro-3-methyl-phenyl)-2-methyl-3-pyridyl]methyl]-1,3-oxazinan-2-one] | 22 nM
5 | Cc1ncc(-c2ccc(F)cc2F)cc1CN1CCCOC1=O [Example 72, 3-[[5-(2,4-Difluorophenyl)-2-methyl-3-pyridyl]methyl]-1,3-oxazinan-2-one] | 2240 nM
6 | Cc1ncc(-c2ccc(Cl)c(Cl)c2)cc1CN1CCCOC1=O [Example 73, 3-[[5-(3,4-Dichlorophenyl)-2-methyl-3-pyridyl]methyl]-1,3-oxazinan-2-one] | 19 nM
7 | Cc1ncc(-c2cccc(C(F)(F)F)c2)cc1CN1CCCOC1=O [Example 74, 3-[[2-Methyl-5-[3-(Trifluoromethyl)phenyl]-3-pyridyl]methyl]-1,3-oxazinan-2-one] | 50 nM
8 | Cc1ncc(-c2ccc(F)c(C(F)(F)F)c2)cc1CN1CCCOC1=O [Example 75, 3-[[5-[4-Fluoro-3-(trifluoromethyl)phenyl]-2-methyl-3-pyridyl]methyl]-1,3-oxazinan-2-one] | 39 nM
9 | Cc1cc(-c2cnc(C)c(CN3CCOC3=O)c2)ccc1F [Example 76, 3-[[5-(4-Fluoro-3-methyl-phenyl)-2-methyl-3-pyridyl]methyl]oxazolidin-2-one] | 19 nM
10 | Cc1ncc(-c2ccc(F)c(C)c2F)cc1CN1CCOC1=O [Example 77, 3-[[5-(2,4-Difluoro-3-methyl-phenyl)-2-methyl-3-pyridyl]methyl]oxazolidin-2-one] | 13 nM
11 | Cc1ncc(-c2ccc(F)c(C(C)(F)F)c2)cc1CN1CCOC1=O [Example 78, 3-[[5-[3-(1,1-Difluoroethyl)-4-fluoro-phenyl]-2-methyl-3-pyridyl]methyl]oxazolidin-2-one] | 32 nM
12 | Cc1ncc(-c2ccc(F)c(OC(F)F)c2)cc1CN1CCOC1=O [Example 79, 3-[[5-[3-(Difluoromethoxy)-4-fluoro-phenyl]-2-methyl-3-pyridyl]methyl] oxazolidin-2-one] | 10 nM
13 | Cc1ncc(-c2ccc(F)c(OC(F)F)c2)cc1CN1CC2(CC2)OC1=O [Example 84, 5-[[5-[3-(Difluoromethoxy)-4-fluoro-phenyl]-2-methyl-3-pyridyl]methyl]-7-oxa-5-azaspiro[2.4]heptan-6-one] | 52 nM
14 | Cc1ncc(-c2ccc(F)c(OC(F)F)c2)cc1CN1CC2(CCC2)OC1=O [Example 85, 6-[[5-[3-(Difluoromethoxy)-4-fluoro-phenyl]-2-methyl-3-pyridyl]methyl]-8-oxa-6-azaspiro[3.4]octan-7-one] | 107 nM
15 | Cc1ncc(-c2ccc(F)c(OC(F)F)c2)cc1CN1CC(C)(C)OC1=O [Example 87, 3-[[5-[3-(Difluoromethoxy)-4-fluoro-phenyl]-2-methyl-3-pyridyl]methyl]-5,5-dimethyl-oxazolidin-2-one] | 373 nM
16 | Cc1ncc(-c2ccc(F)c(OC(F)F)c2)cc1CN1CCCOC1=O [Example 88, 3-[[5-[3-(Difluoromethoxy)-4-fluoro-phenyl]-2-methyl-3-pyridyl]methyl]-1,3-oxazinan-2-one] | 22 nM
17 | Cc1ncc(-c2ccc(Cl)c(OC(F)F)c2)cc1CN1CCOC1=O [Example 89, 3-[[5-[4-Chloro-3-(difluoromethoxy)phenyl]-2-methyl-3-pyridyl]methyl]oxazolidin-2-one] | 14 nM
